In test [1] the target is GSNOR (Homo sapiens, UniProt P11766). Nature of the test: Dead-end inhibition studies of GSNOR. Type of test: biochemical. Also on record: made in house; host or cells: E. coli. The settings on record: pH 7.5, 25° C., GSNO held at 10 μM. On the procedure: Referring now to Table 3, inhibition experiments were performed at 25° C. in 50 mM potassium phosphate (pH 7.5) including 0.1 mM EDTA. A minimum of five concentrations of the varied substrate and three inhibitor concentrations were used for each experiment. NADH and GSNO concentrations were held at 15 or 10 μM, respectively when present as a constant substrate in the assay. The Kis and Kii values are respectively the slope and intercept inhibition constants and are listed along with their associated standard errors. All data were fit to a competitive (C), noncompetitive (NC), or uncompetitive (UC) inhibition models. The type of inhibition shown in the table represents the best fit of the data to the given model as judged from F statistics analysis. […] The dissociation constant was measured at 25° C. in 50 mM potassium phosphate pH 7.5. Each KD value is an average of three independent experiments and is shown with the associated standard error.
Sequence of GSNOR (P11766 2-374 limits assumed): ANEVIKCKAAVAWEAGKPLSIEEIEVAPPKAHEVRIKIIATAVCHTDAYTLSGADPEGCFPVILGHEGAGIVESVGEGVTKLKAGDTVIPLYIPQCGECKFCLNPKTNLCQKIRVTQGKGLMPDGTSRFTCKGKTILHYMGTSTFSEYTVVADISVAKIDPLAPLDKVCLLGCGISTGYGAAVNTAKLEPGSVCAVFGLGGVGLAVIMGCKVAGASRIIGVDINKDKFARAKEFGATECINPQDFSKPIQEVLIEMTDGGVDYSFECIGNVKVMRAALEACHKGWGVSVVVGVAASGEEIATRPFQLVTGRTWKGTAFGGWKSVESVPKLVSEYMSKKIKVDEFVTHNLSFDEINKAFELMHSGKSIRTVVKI
Inhibition experiments with the GSNOR inhibitors were conducted at 25° C. in 3 ml of 50 mM potassium phosphate (pH 7.5) containing 0.1 mM EDTA. […] A minimum of three inhibitor concentrations were used in these assays and the rate of NADH and GSNO consumption was determined spectrophotometrically by following change in absorbance at 340 nm. […]

Test [2] concerns RAW 264.7 cells. Description: s-Nitrosothiol accumulation in RAW 264.7 cells, biotin switch assay. In kind it is cell-based, rat. On the procedure: Referring now to FIG. 4, RAW 264.7 cells were cultured in DMEM containing 10% heat-inactivated serum. Cells were treated with 33 μM of Compound 8 for 0, 2, 4, 8, or 24 h alone or in combination with 1 mM NAME for 4 h (lane 4+N). At indicated times, the cells were quenched and the lysate was analyzed for s-nitrosothiol content by the biotin switch assay.
RAW 264.7 cells were cultured in 10% heat-inactivated serum containing DMEM. Cells were treated with 33 micromolar compound 8 for varied lengths of time alone or in combination with 1 mM NAME for 4 h (4+N). […] Briefly, free sulfydryls in ˜200 μg of cell lysate were blocked with 20 mM MMTS in 1 ml of HEN buffer (250 mM HEPES pH 7.7 containing 1 mM EDTA and 0.1 mM Neocupronine) containing 2% SDS at 50° C. for 20 min. Free MMTS was removed by gel-filtration spin columns and the blocked proteins were labeled with 1 mM Biotin-HPDP (Pierce) in presence or absence of 30 mM ascorbate and 2 μM CuCl for 2.5 hours.

In test [3] the target is T1, GSNOR•NADH complex (Homo sapiens, UniProt P11766).
T1 construct: made in house; host or cells: E. coli
T1 sequence (P11766 2-374 limits assumed, one chain of several): as the sequence (P11766 2-374 limits assumed) above
Nature of the test: Fluorescence equilibrium binding to GSNOR•NADH complex. The following applies: 1.7 μM NADH, 2 μM GSNOR, 50 μM compound 8. The method, then: Referring now to FIG. 2, (A) Changes in the fluorescence of NADH (curve a) upon sequential addition of GSNOR (curve b) and compound 8 (curve c). To a solution of 1.7 μM NADH were added 2 μM GSNOR and 50 μM compound 8 in sequence and the fluorescence of the solution measured each time (λexc=350 nm; λemm=375-550 nm); (B) Changes in the fluorescence of NADH (curve a) upon sequential addition of GSNOR (curve b), 12-HDDA (curve c) and compound 8 (curve d). To a solution of 1.7 μM NADH were added 2 μM GSNOR, 810 μM 12-HDDA and 50 μM compound 8 in sequence and the fluorescence measured each time (λexc=350 nm; λemm=375-550 nm); (C) Binding of compound 8 to GSNOR•NADH complex. The change in fluorescence of a 1.7 μM NADH and 2 μM GSNOR mixture (λexc=350 nm; λemm=455 nm) with increasing concentrations of compound 8 was fitted to a single site binding model (equation 1; see materials and methods) using the Graphpad Prizm 4. All of the fluorescence studies were conducted at room temperature in 50 mM potassium phosphate pH 7.5.
Referring now to Table 3, inhibition experiments were performed at 25° C. in 50 mM potassium phosphate (pH 7.5) including 0.1 mM EDTA. […] The dissociation constant was measured at 25° C. in 50 mM potassium phosphate pH 7.5. […]
Fluorescence studies were conducted in 50 mM potassium phosphate pH 7.5, at room temperature using a Fluoromax-2 fluorescence spectrometer (Instruments S.A., Inc., Edison, N.J.). The equilibrium dissociation constant of GSNOR inhibitors was determined by measuring the changes in the fluorescence of GSNOR bound NADH (λexc=350 nm; λemm=455 nm) upon the addition of inhibitor. […] The decrease in fluorescence at 455 nm with each addition of inhibitor was plotted against the final concentration of inhibitor and the data were fitted to equation 1 using nonlinear regression to obtain the dissociation constant of the inhibitor for GSNOR-NADH complex,
[formula] In equation 1, ΔF is the change in the fluorescence at 455 nm upon the addition of inhibitor. ΔFM is the maximum fluorescence change that was obtained from curve fitting. […]

In the case of `N#Cc1ccccc1CSc1nc2ccsc2c(=O)n1Cc1ccc(C(=O)O)cc1` [Compound 8], in test [1], the “type of inhibition against varied NADH” value was “uncompetitive”. Further, in test [2] (33 μM), the “time of peak effect on nitrosylation of cellular proteins” value is given as “around 8 hours” and the “time to decrease to normal nitrosylation levels” value is no more than 24 h. In addition, in test [2] (33 μM compound 8 + 1 mM NAME, 4 h), the “accumulation of SNOs with simultaneous L-NAME” value is reported as “less”. Besides, the “nitrosylation of cellular proteins” value in test [2] (33 μM, 0-24 h) is “increased the nitrosylation of cellular proteins with time”. The “effect on fluorescence of GSNOR bound NADH” value in test [3] is “decreased the fluorescence of NADH”. For the same compound, the “effect on GSNOR•NADH•12-HDDA complex (displacement of 12-HDDA)” value in test [3] (810 μM 12-HDDA) is given as “displaced 12-HDDA from the active site”.

The values above are taken from US9198909B1, “Materials and methods for inhibiting mamalian S-nitrosoglutathione reductase” (Indiana University Research and Technology Corporation, priority 2007, dated 2015).
